Source: publication PMC4065339, “Characterization of Family D DNA polymerase from Thermococcus sp. 9°N” (Extremophiles, 2014)

What was measured:
[1] = tested on: T1, polD (heterodimer of polD-S and polD-L); experiment: [α-32P]-dCTP incorporation into primed M13mp18, acid precipitation; type: biochemical, Thermococcus sp. 9°N; details: 10 nM enzyme, 15 nM primed M13mp18, 50 µM dNTPs, ThermoPol buffer pH 8.8 (2 mM MgSO4), 65 °C, 20 min; read-out: not inhibited by up to 0.4 mM
T1 construct: gene polC; E. coli T7 Express/pRIL, untagged, co-expressed plasmids pERE1 and pERF5, co-purified heterodimer; with DNA polymerase II small subunit

[2] = biological target: T2, polB (9°Nm DNA polymerase; 9°N/E143D) (Thermococcus sp. 9oN-7, UniProt Q56366, E143D); experiment: as above; type: biochemical
T2 construct: gene pol; commercial recombinant 9°Nm DNA polymerase (New England Biolabs), E143D variant in exonuclease domain; single subunit
T2 sequence (Q56366 1-775 E143D): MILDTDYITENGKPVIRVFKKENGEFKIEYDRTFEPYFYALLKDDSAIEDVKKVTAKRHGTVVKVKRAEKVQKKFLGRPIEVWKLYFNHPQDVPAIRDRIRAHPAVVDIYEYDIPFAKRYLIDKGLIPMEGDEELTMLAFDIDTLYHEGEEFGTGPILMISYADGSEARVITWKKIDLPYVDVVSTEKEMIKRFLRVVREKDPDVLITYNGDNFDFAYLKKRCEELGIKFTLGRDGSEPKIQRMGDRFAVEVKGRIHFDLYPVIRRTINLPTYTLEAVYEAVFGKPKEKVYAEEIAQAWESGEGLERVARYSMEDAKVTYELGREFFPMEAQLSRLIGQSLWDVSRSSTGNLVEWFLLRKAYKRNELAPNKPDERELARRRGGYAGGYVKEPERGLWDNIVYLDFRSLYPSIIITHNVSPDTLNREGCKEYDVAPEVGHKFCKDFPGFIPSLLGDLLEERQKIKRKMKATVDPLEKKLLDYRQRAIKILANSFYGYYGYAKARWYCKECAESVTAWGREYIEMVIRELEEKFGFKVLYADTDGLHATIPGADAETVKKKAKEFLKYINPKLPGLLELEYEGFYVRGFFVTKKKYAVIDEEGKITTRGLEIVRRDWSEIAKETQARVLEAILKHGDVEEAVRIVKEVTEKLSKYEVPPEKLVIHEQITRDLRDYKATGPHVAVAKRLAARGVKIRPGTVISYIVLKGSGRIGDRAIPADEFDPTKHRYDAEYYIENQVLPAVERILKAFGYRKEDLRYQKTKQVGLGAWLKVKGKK

`C[C@@]1(CO)[C@H](O)CC[C@@]2(C)[C@H]1CC[C@H]1C[C@@H]3C[C@@]12CC[C@]3(O)CO` [aphidicolin] was tested, and the IC50 [1] was greater than 400 µM and the IC50 [2] was 300 µM.
